In US20230101743A1, “SUBSTITUTED TRIAZINE COMPOUNDS AND USES THEREOF” (MUSC FOUNDATION FOR RESEARCH DEVELOPMENT, priority 2020, published 2023):

Columns and labels:
[1] = system: hepatic markers (ALB, AFP, HNF4α, SLC10A1, ASGR1); assay: Hepatic marker expression (real-time qPCR, immunofluorescence); type: cell-based, human; conditions: 2 μg/mL, 24 hours
Description: C. Human iPSC-derived hepatocytes were treated with 2 μg/mL of DL-1 for 24 hours. (A) mRNA level of hepatic markers (ALB, AFP, HNF4α, SLC10A1, ASGR1) were determined via real-time qPCR. (B) Cells were fixed and immunofluorescence was performed to determine HNF4 and ALB level. […] Data are shown as mean SEM of […] (n=4).
For hepatic marker expression analysis, human iPSC-derived hepatocytes (Day 20) were treated with 2 μg/mL of DL-1 for 24 hours. Cells were fixed in 4% paraformaldehyde (PFA) and penetrated with 0.1% Triton-X-100. Cells were incubated with primary antibodies (ALB, 1:1000, Dako; HNF4-a, 1:1000, Santa Cruz) overnight at 4 degrees and then switched to secondary antibodies (Alexa Flour 488 goat anti-rabbit, 1:1000, Invitrogen; Alexa Flour 594 rabbit anti-mouse, 1:2000, Invitrogen). Images were taken using Bio-Rad Zoe™ Fluorescent Cell Imager (Bio-Rad). For intracellular APOB localization, iPSC-heps were treated with 0, 3, 12, 48 μg/mL of DL-9 for 24 hours, and cells were fixed in 4% PFA followed by 0.1% Triton-X-100 penetration. […] Integrated fluorescent intensity was normalized by total cell counts, which is determined by DAPI staining.
Human iPSC-derived hepatocytes (Day 20) were treated with 2 μg/mL of DL-1 for 24 hours. […] Quantitative real-time PCR was performed on a BioRad CFX384 real-time PCR machine.

Intracellular APOB = Intracellular APOB accumulation (LDL uptake, pulse-chase, immunofluorescence); type: cell-based; conditions: human iPSC-derived hepatocytes
Description: C. Human iPSC-derived hepatocytes (iPSC-Heps) were treated with 2 μg/mL of DL-1 or equivalent concentration of DMSO for 24 hours. In FIG. 7A, APOB mRNA level was determined using real-time qPCR. In FIG. 7B Intracellular APOB, LDLR, and HSP90 protein levels were determined via immunoblot; Quantification of biological replicates of immunoblots. Data are shown as mean±SD of four replicates (n=4). In FIG. 12A LDL uptake assay was performed by pre-treating cells with 2 μg/mL of DL-1, 20 μM of Atorvastatin, and equivalent concentration of DMSO for 24 hours followed by 4 hours of pHrodo-LDL exposure; LDL endocytosis was determined and quantified by fluorescence image; data are shown as mean±SD of triplicates (n=3). In FIG. 12B, iPSC-Heps were pre-treated with 3, 12, and 48 μg/mL of DL-9 for 2 hours, and cells were pulse-labeled with [^35S]methionine for 10 minutes and chased for 120 mins with or without DL-9 treatment; intracellular ^35S-APOB were determined by immunoprecipitation using anti-APOB antibody; band density was quantified and normalized with 5% of input (n=3). […]
Immunoprecipitation of cell lysates was performed using protein G magnet beads (ThermoFisher) and anti-APOB (LDL20/17, Mabtech) antibodies. […] Expression levels were quantified via integrated intensity normalized by 5% of input of each sample. […] Signals were detected using HRP-conjugated secondary antibodies. […]

[2] = system: APOB secretion in the culture medium of hepatic cells; assay: Secreted APOB ELISA in hepatic cells (K3 and JD4 iPSC-derived hepatocytes, human primary hepatocytes, HepG2); type: cell-based; conditions: 2 μg/mL, 24 hours; compared to DMSO-treated cells
Description: A. Human-induced pluripotent stem cells from a health donor (K3) and HoFH patient (JD4) were differentiated into hepatocytes via a defined protocol. Two different iPSC-derived Hepatocytes along with human primary hepatocytes and HepG2 cells were treated with 2 μg/mL of DL-1 for 24 hours and secreted APOB level were determined via human-specific APOB ELISA and were compared to DMSO-treated cells. […] Data shown as mean±SEM of triplicates (n=3); * p<0.05, *** P<0.001.
Human iPSCs were generated previously and have been described elsewhere (Si-Tayeb, 2010; Cayo et al., 2012). […]
Human APOB level was determined via a commercial sandwich ELISA (3715-1H-6; Mabtech), and the signal was detected using the HRP-TMB system. The concentration of APOB was determined using a standard curve with four parameters logistic regression model. Human APOA level was determined via a commercial sandwich ELISA (3710-1H-6; Mabtech) following manufacture instruction. Human albumin levels in cell culture supernatants were measured by commercial ELISA (E88-129; Bethyl Laboratories) following manufactural instructions.

Sc1nc(S)nc(Nc2ccc(Nc3ccccc3)cc2)n1 (racemic) [DL-1, 6-{[4-(phenylamino)phenyl]amino}-1,3,5-triazine-2,4-dithiol]
hepatic character (hepatic marker mRNA, HNF4 and ALB immunofluorescence) [1]: no impact on hepatic characters
intracellular APOB accumulation (Intracellular APOB): induced intracellular APOB accumulation independently of mRNA expression and LDL uptake
secreted APOB level [2]: reduces APOB secretion
